From PubChem BioAssay (NCI) come the findings set out here.

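Dose response: 5 concentrations. Exposure: 48 h. Format: 96-well plates. Endpoint: linear interpolation; highest concentration if not reached. Abbreviation: GI50, concentration required for 50% inhibition of growth. TGI denotes the concentration required for complete inhibition of growth.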

Common to all, as to experiment: NCI tumour cell line growth inhibition, 48 h
Assay [1] relates to UO-31 renal.
The test system of assay [2] is MOLT-4 leukemia.
The subject of assay [3] is TK-10 renal.
Assay [4] concerns EKVX NSCLC.
The test system of assay [5] is COLO 205 colon.
The test system of assay [6] is A549 NSCLC.
Assay [7] deals with HT29 colon.
Assay [8] relates to UACC-62 melanoma.
Assay [9] has as its system HCT-15 colon.
For assay [10], the system named is SK-MEL-28 melanoma.

On to `CNCCOC(=O)/C=C1\CC[C@H]2[C@@H]([C@@H](O)C(=O)[C@@H]3[C@]2(C)CC[C@H](O)[C@]3(C)C(=O)OC)[C@H]1C`, for which the GI50 in assay [1] was 0.297 µM; in assay [2], 0.212 µM; in [3], 0.262 µM; in assay [4] it was 0.229 µM; in assay [5], 1.55 µM; in assay [6], 0.165 µM. Also, the GI50 in assay [7] is 0.443 µM; in assay [8], 1.41 µM; in [9], 0.608 µM; in assay [10], 1.06 µM. In addition, the TGI in assay [1] was found to be 1.1 µM; in assay [2], 0.543 µM; in assay [3] it was 0.76 µM; in assay [4], 0.539 µM; in assay [5], 3.04 µM; in [6], 0.314 µM. Further, the TGI was found to be 1.58 µM in assay [7], 2.93 µM in [8], 2.55 µM in assay [9] and 2.61 µM in assay [10].
As for `N#Cc1nn(-c2cc(=O)[nH]c3ccc(Cl)cc23)c(N)c1C#N`, the GI50 in assay [1] is more than 100 µM; in [2], more than 100 µM; in [3] it was more than 100 µM; in [4], 11.5 µM; in assay [5], 59.3 µM; in assay [6], more than 100 µM. Further, the GI50 in [7], in assay [8], in assay [9] and in [10] was more than 100 µM each time. In addition, the TGI in [1], in assay [2], in assay [3], in assay [4], in assay [5] and in [6] was more than 100 µM each time. Also, the TGI in [7], in assay [8], in assay [9] and in assay [10] was more than 100 µM in each case.
In the case of `CCC[CH2][Sn]([CH2]CCC)([O]C(=O)c1ccc(OC)c(OC)c1OC)[O][Sn]([CH2]CCC)([CH2]CCC)[O]C(=O)c1ccc(OC)c(OC)c1OC`, the GI50 in assay [1] was 0.546 µM; in [2] it was 0.0804 µM; in assay [3], 0.306 µM; in assay [4], 1.39 µM; in [5], 0.27 µM; in assay [6], 2.27 µM. Further, the GI50 is 0.831 µM in assay [7], 0.164 µM in assay [8], 0.175 µM in [9] and 0.25 µM in assay [10]. Moreover, the TGI stood at 1.18 µM in assay [1]; 2.34 µM in assay [2]; 0.716 µM in assay [3]; 2.76 µM in assay [4]; 0.917 µM in [5]; 5.42 µM in assay [6]. Further, the TGI in assay [7] came out at 2.31 µM; in [8], 0.504 µM; in assay [9], 0.526 µM; in [10], 0.723 µM.
Take `COC(=O)c1ccc2c(c1)C(=O)c1c-2n(CCCN=[N+]=[N-])c(=O)c2cc(OC)c(OC)cc12`: the GI50 in [1] is more than 100 µM; in [2], 3.82 µM; in assay [3], more than 100 µM; in assay [4], more than 100 µM; in assay [5], more than 100 µM; in assay [6] it was more than 100 µM. For the same compound, the GI50 in [7], in [8], in [9] and in assay [10] was more than 100 µM each time. Also, the TGI in assay [1] is more than 100 µM; in [2] it was 19.1 µM; in assay [3] it was more than 100 µM; in assay [4], more than 100 µM; in assay [5], more than 100 µM; in [6] it was more than 100 µM. For the same compound, the TGI in assay [7], in [8], in [9] and in assay [10] was more than 100 µM in each case.
Consider `Cc1cc2c(=O)c3ccccc3[nH]c2c(C(N)=O)c1C`, for which the TGI in assay [1], in assay [2], in assay [3], in assay [4], in assay [5] and in assay [6] was more than 100 µM in each case. Also, the TGI in assay [7], in assay [8], in assay [9] and in [10] was more than 100 µM in each case.
With `CCOC(=O)Nc1cc2c(c(N)n1)N=C(c1ccccc1)CO2`, the GI50 was 0.459 µM in assay [1]; 0.105 µM in assay [2]; 0.704 µM in assay [3]; 0.409 µM in assay [4]; 0.102 µM in assay [5]; 0.167 µM in assay [6]. The GI50 in assay [7] is 0.047 µM; in assay [8], 0.359 µM; in [9], 0.0894 µM; in assay [10], 15.6 µM. Moreover, the TGI is 6.53 µM in assay [1]; more than 40.7 µM in assay [2]; 19.3 µM in [3]; more than 46 µM in assay [4]; 0.885 µM in [5]; 13.8 µM in assay [6]. The TGI in [7] is 10.9 µM; in assay [8], 31.3 µM; in assay [9] it was more than 100 µM; in assay [10] it was 77.7 µM.
As for `O=c1c(F)cn(Cc2ccc(C34CC5CC(CC(C5)C3)C4)c(O)c2)c(=O)n1Cc1ccc(C23CC4CC(CC(C4)C2)C3)c(O)c1`, the GI50 was 17.5 µM in [1]; 5.85 µM in [2]; 15.7 µM in assay [3]; 15.8 µM in assay [4]; 18 µM in assay [5]; 4.2 µM in assay [6]. In addition, the GI50 in assay [7] was 13.9 µM; in [8], 15.9 µM; in [9], 13.6 µM; in [10], 17.7 µM. In addition, the TGI in [1] was 41.4 µM; in assay [2], 44.4 µM; in [3], 30 µM; in assay [4], 34.8 µM; in assay [5], 37.5 µM; in [6], more than 100 µM. The TGI in assay [7] was 29.9 µM; in assay [8], 29.5 µM; in assay [9] it was 26.5 µM; in assay [10], 32.3 µM.
In the case of `CSc1nc(SC)c2c(C#N)[nH]nc2n1`, the TGI in assay [1], in assay [2], in [3], in assay [4], in assay [5] and in assay [6] was more than 100 µM each time. Also, the TGI in [7], in assay [8], in assay [9] and in [10] was more than 100 µM each time.
